Broadly, the IC50 is the point on the concentration scale where inhibition reaches its midpoint.

The structures appear in SMILES notation. Counter-ions that a name gives are not always drawn.

The results in this text go back to patent US6825192B1, “Heterodiazinone derivatives” (Eisai Co., Ltd., priority 1999, dated 2004).

For this experiment, the system named is AMPA receptor. Kind of experiment: Inhibitory action on AMPA-inducing inflow of calcium into nerve cells (Fura2-AM). Format: cell-based. The settings on record: rat cerebral cortex nerve cells on astrocytes, 1 μM MK-801, stimulated by 2 μM AMPA, fluorescence 340/380 nm. Here is the method:
The cerebral cortex was excised from the brain of a rat on day 18 after birth and treated with trypsin and DNase, whereby the cells were dispersed. The cells were allowed to float on DMEM containing 10% serum, inoculated into a culture bottle, and their astrocytes were grown. The astrocytes were re-dispersed with trypsin and inoculated onto each well on a 96-well plate. After it was confirmed that the bottom of each well was completely covered with the astrocytes after culture for 1 week, cerebral cortex nerve cells dispersed in the same manner as above were inoculated thereon. After 24 hours, the medium was exchanged with fresh one, and after culture for further 1 week, the medium was exchanged with a medium containing 1 μM MK-801.
The inflow of calcium into the cells was measured using Fura2-AM that is a calcium-sensitive fluorescent pigment. By treating the cells with a Fura2-AM-containing medium for 1 hour, Fura2-AM was incorporated into the cells, and the medium was exchanged with a Tyrode solution containing 1 μM MK-801. After a test compound was added, the cells were stimulated by 2 μM AMPA. The change in the amount of calcium flowing into the cells was measured as a change in the fluorescence intensity at wavelengths of 340/380 nm. The effect of a test compound was evaluated where the reaction caused by AMPA added to the Tyrode solution free of the test compound was used as the control.
With `O=C1COC(c2ccccn2)=NN1C1CCCCC1` [Example 11, 2-(2-Pyridyl)-4-cyclohexyl-4H-1,3,4-oxadiazine-5(6H)-one hydrochloride], the 50% inhibitory concentration (IC50) worked out at 69 µM.
In the case of `O=C1COC(c2ccccc2OCCN2CCOCC2)=NN1c1ccc(F)cc1F` [Example 71, 2-{2-[2-(4-Morpholinyl)ethoxy]phenyl}-4-(2,4-difluorophenyl)-4H-1,3,4-oxadiazine-5(6H)-one hydrochloride] it was 21 µM; in that of `O=C1CSC(c2ccccc2)=NN1c1ccccc1` [Example 4, 2,4-Diphenyl-4H-1,3,4-thiadiazine-5(6H)-one], 12 µM.
In the case of `Cn1cccc1C1=NN(c2ccccc2)C(=O)CO1` [Example 3, 2-(1-Methyl-2-pyrolyl)-4-phenyl-4H-1,3,4-oxadiazine-5(6H)-one], the IC50 came to 33.2 µM.
Turning to `N#Cc1cccnc1N1N=C(c2ccccc2)OCC1=O` [Example 40, 2-Phenyl-4-(3-cyano-2-pyridyl)-4H-1,3,4-oxadiazine-5(6H)-one hydrochloride], the half-maximal inhibitory concentration (IC50) is 34.8 µM.
In the case of `O=C1C(O)SC(c2ccccc2)=NN1c1ccccc1` (stereo not shown) [Example 102, 2,4-Diphenyl-6-hydroxy-4-1,3,4-thiadiazine-5-one] it was 8.2 µM; in that of `O=C1COC(Cc2ccccc2)=NN1c1ccccc1` [Example 32, 2-Benzyl-4-phenyl-4H-1,3,4-oxadiazine-5(6H)-one], 36.6 µM; in that of `O=C1COC(c2ccccc2)=NN1c1ccsc1` [Example 44, 2-Phenyl-4-(3-thienyl)-4H-1,3,4-oxadiazine-5(6H)-one], 22.7 µM.
Regarding `O=C1COC(c2ccccc2O)=NN1c1ccc(F)cc1F` [Example 53, 2-(2-Hydroxyphenyl)-4-(2,4-difluorophenyl)-4H-1,3,4-oxadiazine-5(6H)-one], the half-inhibitory concentration (IC50) came to 1.92 µM.
In the case of `O=C1COC(c2ccccn2)=NN1c1ccccc1F` [Example 34, 2-(2-Pyridyl)-4-(2-fluorophenyl)-4H-1,3,4-oxadiazine-5(6H)-one] it was 9.21 µM; in that of `Nc1cccc(C2=NN(c3ccccc3)C(=O)CO2)c1` [Example 78, 2-(3-aminophenyl)-4-phenyl-4H-1,3,4-oxadiazine-5(6H)-one], 31.8 µM.
In the case of `Cc1cccc(C2=NN(c3ccccc3)C(=O)CO2)n1` [Example 8, 2-(6-Methyl-2-pyridyl)-4-phenyl-4H-1,3,4-oxadiazine-5(6H)-one hydrochloride], the half-inhibitory concentration (IC50) came out at 21.1 µM.
In the case of `O=C1COC(c2cccnc2)=NN1c1ccccc1` [Example 29, 2-(3-Pyridyl)-4-phenyl-4H-1,3,4-oxadiazine-5(6H)-one hydrochloride] it was 43.5 µM; in that of `O=C1COC(c2ccnc(Cl)c2)=NN1c1ccccc1` [Example 12, 2-(2-Chloro-4-pyridyl)-4-phenyl-4H-1,3,4-oxadiazine-5(6H)-one hydrochloride], 42.8 µM.
`CN(CCOc1ccccc1C1=NN(c2ccccc2Br)C(=O)CO1)Cc1ccccc1` [Example 103, 2-{2-[2-(N-Benzyl-N-methyl)amino]ethoxyphenyl}-4-(2-bromophenyl)-4H-1,3,4-oxadiazine-5(6H)-one]: the IC50 was 4.2 µM.
In the case of `O=C1C(c2ccccc2)OC(c2ccccc2)=NN1c1ccccc1` (stereo not shown) [Example 108, 2,4,6-triphenyl-4H-1,3,4-oxadiazine-5-one], the concentration for half-maximal inhibition (IC50) worked out at 13.2 µM.
In the case of `CC(c1ccccn1)N1N=C(c2ccccc2)OCC1=O` (stereo not shown) [Example 87, 2-Phenyl-4-[1-(2-pyridyl)ethyl]-4H-1,3,4-oxadiazine-5(6H)-one hydrochloride] it was 25.4 µM; in that of `CNCCOc1ccccc1C1=NN(c2ccccc2Br)C(=O)CO1` [Example 104, 2-[2-(Methylamino)ethoxyphenyl]-4-(2-bromophenyl)-4H-1,3,4-oxadiazine-5(6H)-one], 2.7 µM.
In the case of `O=C1COC(c2ccccc2O)=NN1c1ccccc1F` [Example 51, 2-(2-Hydroxyphenyl)-4-(2-fluorophenyl)-4H-1,3,4-oxadiazine-5(6H)-one] it was 1.06 µM.
